# Data reported in patent publication US7368432B2 (Xenome, Ltd., priority 1999, dated 2008).
# How the values were obtained:
# [1] = system: CF-1 mice; conditions: mouse, in vivo
# [2] = system: neurotensin receptors; conditions: in vivo; cited from earlier work
Substance,motor impairment (rotarod) [1],potency in inhibiting pain relative to neurotensin [2]
NGVCCGYKLCHOC [Mar1],do not produce gross motor impairment or impair performance on the rotarod test,–
Contulakin-G,–,significantly more potent than neurotensin
